Source: ChEMBL document CHEMBL2384955, “Structure-activity relationships in aminosterol antibiotics: the effect of stereochemistry at the 7-OH group” (2013)
Calls of active or inactive are those of the source. The rule behind the calls is not given here.

Tests used:
[1] = system: Lipid bilayer; assay: Binding affinity to zwitterionic DOPC large unilamellar vesicle assessed as release of calcein at 1 mg/mL measured for 1 min by spectrophotometric analysis relative to control
[2] = system: Lipid bilayer; assay: Binding affinity to DOPG large unilamellar vesicle assessed as release of calcein at 1 mg/mL measured for 1 min by spectrophotometric analysis
[3] = system: Lipid bilayer; assay: Binding affinity to DOPC/DOPG large unilamellar vesicle assessed as release of calcein at 1 mg/mL measured for 1 min by spectrophotometric analysis
[4] = system: Staphylococcus aureus; assay: Antibacterial activity against Staphylococcus aureus ATCC 29213 assessed as cell viability after 24 hrs by resazurin-based microplate assay; assay type: functional; conditions: ATCC 29213, 24 h
[5] = system: Pseudomonas aeruginosa; assay: Antibacterial activity against Pseudomonas aeruginosa ATCC 27853 assessed as growth inhibition assessed as cell viability after 24 hrs by resazurin-based microplate assay; assay type: functional; conditions: ATCC 27853, 24 h
[6] = system: Escherichia coli; assay: Antibacterial activity against Escherichia coli ATCC 25922 assessed as growth inhibition assessed as cell viability after 24 hrs by resazurin-based microplate assay; assay type: functional; conditions: ATCC 25922, 24 h
[7] = system: Enterococcus faecalis; assay: Antibacterial activity against Enterococcus faecalis ATCC 29212 assessed as growth inhibition assessed as cell viability after 24 hrs by resazurin-based microplate assay; assay type: functional; conditions: ATCC 29212, 24 h

| Compound | Activity [1] | Activity [2] | Activity [3] | MIC [4] | MIC [5] | MIC [6] | MIC [7] |
| --- | --- | --- | --- | --- | --- | --- | --- |
| CC(C)[C@@H](CC[C@@H](C)[C@H]1CC[C@H]2[C@@H]3[C@H](O)C[C@H]4C[C@@H](NCCCNCCCCN)CC[C@]4(C)[C@H]3CC[C@]12C)OS(=O)(=O)O.CC(O)C(=O)O | 50% | Active | Active | 2 µg/mL | 4 µg/mL | 8 µg/mL | 2 µg/mL |
| CC(C)[C@@H](CC[C@@H](C)[C@H]1CC[C@H]2[C@@H]3[C@@H](O)C[C@H]4C[C@@H](NCCCNCCCCNCCCN)CC[C@]4(C)[C@H]3CC[C@]12C)OS(=O)(=O)O.O=C(O)C(F)(F)F | 50% | Active | inactive | 8 µg/mL | 32 µg/mL | 1 µg/mL | 16 µg/mL |
| CC(C)[C@@H](CC[C@@H](C)[C@H]1CC[C@H]2[C@@H]3[C@H](O)C[C@H]4C[C@@H](NCCCNCCCCNCCCN)CC[C@]4(C)[C@H]3CC[C@]12C)OS(=O)(=O)O.Cl | 50% | Active | Active | 4 µg/mL | 8 µg/mL | 2 µg/mL | 32 µg/mL |
| CC(C)[C@@H](CC[C@@H](C)[C@H]1CC[C@H]2[C@@H]3[C@@H](O)C[C@H]4C[C@@H](NCCCNCCCCN)CC[C@]4(C)[C@H]3CC[C@]12C)OS(=O)(=O)O.O=C(O)C(F)(F)F | inactive | inactive | inactive | 12 µg/mL | 24 µg/mL | 12 µg/mL | 12 µg/mL |
